{"source": "patent US20060154932A1", "about": "“Pharmaceutical compositions and method of treating parkinson's disease” (priority 2002, published 2006)", "key": {"Parkinson's disease [1]": {"test_system": "Parkinson's disease", "conditions": "cited from earlier work"}, "Parkinson's disease [2]": {"test_system": "Parkinson's disease", "test": "Unified Parkinson's Disease Rating Scale (UPDRS) Part III motor examination of a patient", "format": "in vivo, human", "conditions": "Patient 1", "protocol": "Patent 1, a person, was administered Part III (motor examination) of the Unified Parkinson's Disease Rating Scale (hereinunder abbreviated as UPDRS) and diagnosed as having Parkinson=3 s disease (scoring a 20 in the test). After a period of evaluation of drug therapy options, the patient was prescribed pergolide, 0.25 mg tid and selegiline 5 mg po. After six (6) months on drug therapy, the patient was once again examined with the UPDRS motor subset and scored 16.5. After three (3) months on the drug, 25 mg of VIOXX, once a day was added to the treatment regime. After four (4) additional months, the patient was once again administered the UPDRS, this time scoring a 6.0. After six (6) months on the VIOXX tripartite therapy, the patient was again administered the UPDRS motor examination and scored 4.0. (see Fahn S, Elton R L, Members of the UPDRS Development Committee. Unified Parkinson's disease rating scale. In: Fahn S, Marsden C D, Calne D, Goldstein M, eds. Recent developments in Parkinson=3 s disease, Vol II. Florham Park, N.J.: Macmillan Healthcare Information, 1987:153-163, 293-304): […]"}, "Parkinson's disease [3]": {"test_system": "Parkinson's disease", "test": "Patient-reported tremor in a Parkinson's disease patient", "format": "in vivo, human", "conditions": "VIOXX 25 mg once a day added to Endo L-C 100-25 TID", "protocol": "Patient 8 (person one), an adult, was diagnosed as having Parkinson's disease. After evaluation the patient was prescribed Endo L-C 100-25, TID. Approximately three years later, the patient began taking VIOXX (25 mg) once a day. After three weeks, patient noticed that severity of tremors had decreased and the frequency between the tremors had increased. In addition, night time tremors, those associated with sleeping, had dramatically subsided (i.e. by up to 90%). Overall, the patient reports that the tremors have subsided nearly 40%."}}}
{"smiles": "N[C@@H](Cc1ccc(O)c(O)c1)C(=O)O", "note": "[levodopa]", "values": [{"measurement": "patients beginning to experience fluctuations in their response (wearing off or on-off effect)", "setting": "Parkinson's disease [1]; after 2 to 5 yr of treatment", "value": "> 50", "unit": "%"}]}
{"smiles": "C#CCN(C)[C@H](C)Cc1ccccc1", "note": "[Selegiline, selegiline]", "values": [{"measurement": "delay of the initiation of levodopa", "setting": "Parkinson's disease [1]; used as initial treatment", "value": "about 1 yr"}]}
{"smiles": "CS(=O)(=O)c1ccc(C2=C(c3ccccc3)C(=O)OC2)cc1", "note": "[VIOXX, rofecoxib]", "values": [{"measurement": "UPDRS score", "setting": "Parkinson's disease [2]; 25 mg VIOXX once a day added to pergolide and selegiline, after four additional months", "value": 6.0}, {"measurement": "UPDRS motor examination score", "setting": "Parkinson's disease [2]; after six months on the VIOXX tripartite therapy (VIOXX 25 mg once a day, pergolide, selegiline)", "value": 4.0}, {"measurement": "severity of tremors", "setting": "Parkinson's disease [3]; Patient 8 (person one), after three weeks", "value": "decreased"}, {"measurement": "night time tremors (associated with sleeping) subsided", "setting": "Parkinson's disease [3]; Patient 8", "value": "up to 90%"}, {"measurement": "tremors subsided overall (patient report)", "setting": "Parkinson's disease [3]; Patient 8", "value": "~40", "unit": "%"}, {"measurement": "frequency between the tremors", "setting": "Parkinson's disease [3]; Patient 8, after three weeks", "value": "increased"}]}
{"smiles": "NC12CC3CC(CC(C3)C1)C2", "note": "[Amantadine, amantadine]", "values": [{"measurement": "patients for whom useful in treating early, mild parkinsonism", "setting": "Parkinson's disease [1]; 100 to 300 mg/day po", "value": 50, "unit": "%"}]}
